{"source": "patent US5451520A", "about": "“Creatine amidinohydrolase from alkaligenes sp. ks-85 ferm bp-4487” (Kikkoman Corporation, priority 1993, dated 1995)", "key": {"[1]": {"target": "T1, conventional creatine amidinohydrolase (CRH-211, a product of Toyobo Co., Ltd.) (Pseudomonas putida, UniProt P38488)", "T1 construct": "purchased Toyobo Co., Ltd. CRH-211", "T1 sequence (P38488 1-403)": "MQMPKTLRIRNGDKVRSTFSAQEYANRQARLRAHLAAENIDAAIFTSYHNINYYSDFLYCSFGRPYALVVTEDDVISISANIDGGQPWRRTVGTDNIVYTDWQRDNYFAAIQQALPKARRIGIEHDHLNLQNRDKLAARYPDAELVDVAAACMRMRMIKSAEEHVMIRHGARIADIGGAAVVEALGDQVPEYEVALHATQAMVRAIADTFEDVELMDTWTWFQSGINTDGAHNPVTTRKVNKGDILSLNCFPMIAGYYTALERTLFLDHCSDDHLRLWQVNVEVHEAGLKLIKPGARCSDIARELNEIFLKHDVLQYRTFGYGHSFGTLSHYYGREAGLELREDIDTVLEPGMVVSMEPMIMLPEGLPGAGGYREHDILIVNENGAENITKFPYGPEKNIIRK", "details": "conventional enzyme; substrate creatine; cited from earlier work"}, "[2]": {"system": "creatine amidinohydrolase from Alkaligenes sp. KS-85 (FERM BP-4487), the present enzyme", "experiment": "Km determination by Lineweaver-Burk plot, creatine substrate", "assay_type": "biochemical", "details": "pH 7.7, 37° C.", "experimental": "The enzyme activity forming […] yellow pigment in 1 minute under the following conditions is referred to as 1 U of the present enzyme.\n6.63 g of creatine is dissolved in 500 ml of 50 mM buffer, pH 7.7.\n1) 0.9 ml of the solution 1 is pre-incubated at 37° C. for 5 min.\n2) 0.1 ml of an enzyme solution (adjusted in the range of approx. 1-2 U/ml) is mixed therewith and allowed to react at 37° C. for 10 min.\n3) After 10 min. reaction, 2 ml of the solution 2 is mixed therewith.\n4) After being mixed with the solution 2, the mixture is allowed to stand at 25° C. for 20 min., and the absorbance at 435 nm is determined (the OD sample)."}}, "data": [{"smiles": "CN(CC(=O)O)C(=N)N", "note": "[creatine]", "values": [{"measurement": "Km", "setting": "[1]", "value": 24, "unit": "mM"}, {"measurement": "Km", "setting": "[2]", "value": 13, "unit": "mM"}]}]}
